Among the data in PubChem BioAssay (NCI) are TGI values, retold here.

Test systems include SF-539 CNS; A498 renal; OVCAR-4 ovarian; SW-620 colon; UO-31 renal; LXFL 529 NSCLC; HCC-2998 colon; SNB-75 CNS; M14 melanoma; SK-MEL-5 melanoma; SK-MEL-2 melanoma; SR leukemia; COLO 205 colon; MOLT-4 leukemia; ACHN renal; NCI-H226 lung; EKVX NSCLC; PC-3 prostate; MDA-MB-435; DU-145 prostate.
Common to all, as to test: NCI tumour cell line growth inhibition, 48 h

Structures are written as SMILES.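 Results reflect a 48-hour exposure of cells in 96-well plates to compound at five concentrations. The concentration for full growth arrest is given as TGI.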

As to `COc1ccc(-c2nc3c(nc2-c2ccc(OC)cc2)N(C)S(=O)(=O)N=C3N)cc1`, the TGI with SF-539 CNS is 51.5 µM; in the test on A498 renal, more than 100 µM; with OVCAR-4 ovarian it was 79.2 µM; in the test on SW-620 colon it was more than 100 µM; with UO-31 renal, 53.2 µM; in the test on LXFL 529 NSCLC, more than 100 µM. Moreover, the TGI in the test on HCC-2998 colon was more than 100 µM; in the test on SNB-75 CNS, more than 100 µM; in the test with M14 melanoma, more than 100 µM; in the test on SK-MEL-5 melanoma, 26.2 µM; in the test with SK-MEL-2 melanoma it was 57.7 µM; in the test with SR leukemia, 35.3 µM. For the same compound, the values for the TGI in the test on COLO 205 colon, with MOLT-4 leukemia and in the test with ACHN renal were 32.5 µM, 48.5 µM and 80 µM, respectively.
For the compound `O=C1CCC2(c3ccccc3)Nc3ccc(Cl)cc3N12` (stereo not given), the TGI in the test on SF-539 CNS, with NCI-H226 lung, in the test with A498 renal, in the test with OVCAR-4 ovarian, in the test with SW-620 colon and in the test with UO-31 renal was more than 100 µM in each case. Further, the TGI with LXFL 529 NSCLC, in the test on HCC-2998 colon, with SNB-75 CNS, in the test with M14 melanoma, in the test with EKVX NSCLC and in the test on SK-MEL-5 melanoma was more than 100 µM throughout. Besides, the TGI with SK-MEL-2 melanoma, in the test on COLO 205 colon, with MOLT-4 leukemia and in the test on ACHN renal was more than 100 µM in each case.
In the case of `CN=C(NC)N(C)c1nc(=[N+](C)C)ss1`, the TGI with SF-539 CNS, in the test on NCI-H226 lung, in the test with A498 renal, with SW-620 colon, with UO-31 renal and in the test with LXFL 529 NSCLC was more than 100 µM throughout. For the same compound, the TGI in the test with HCC-2998 colon, in the test with M14 melanoma, with EKVX NSCLC, in the test with SK-MEL-5 melanoma, in the test with SK-MEL-2 melanoma and with SR leukemia was more than 100 µM throughout. Besides, the TGI in the test on MOLT-4 leukemia and with ACHN renal was more than 100 µM in each case.
Regarding `COC[C@@H](N=CN1CCc2cc(OC)c(OC)cc2C1)C(C)(C)C`, the TGI with SF-539 CNS, in the test on NCI-H226 lung, with OVCAR-4 ovarian, with SW-620 colon, with UO-31 renal and in the test on LXFL 529 NSCLC was more than 100 µM each time. For the same compound, the TGI with SNB-75 CNS, in the test with M14 melanoma, in the test on EKVX NSCLC, with SK-MEL-5 melanoma, in the test on SR leukemia and with COLO 205 colon was more than 100 µM each time. Besides, the TGI with MOLT-4 leukemia and in the test with ACHN renal was more than 100 µM each time.
As to `COc1cc(Nc2nc3ccccc3nc2C(C)C)cc(OC)c1OC`, the TGI with SF-539 CNS, with NCI-H226 lung, in the test with A498 renal, in the test on OVCAR-4 ovarian, in the test with PC-3 prostate and in the test with SW-620 colon was more than 100 µM in each case. For the same compound, the TGI in the test on UO-31 renal, with MDA-MB-435, in the test with HCC-2998 colon, in the test on SNB-75 CNS, with DU-145 prostate and in the test on M14 melanoma was more than 100 µM each time. Besides, the TGI in the test on EKVX NSCLC, with SK-MEL-5 melanoma, in the test on SK-MEL-2 melanoma, in the test with SR leukemia, with COLO 205 colon and in the test with MOLT-4 leukemia was more than 100 µM each time. In addition, the TGI in the test on ACHN renal is more than 100 µM.
For the compound `COc1ccc(/C=C(/c2ccccc2)c2c(C)cc(C)c(/C(=C\c3ccc(OC)cc3)c3ccccc3)c2N=Nc2cc(C)cc(C)c2)cc1`, the TGI in the test with SF-539 CNS, in the test with NCI-H226 lung, in the test on A498 renal, in the test with OVCAR-4 ovarian, with PC-3 prostate and in the test with SW-620 colon was more than 100 µM in each case. Moreover, the TGI in the test on UO-31 renal is more than 100 µM; in the test on MDA-MB-435 it was more than 62.2 µM; in the test on HCC-2998 colon, more than 25.8 µM; in the test with SNB-75 CNS, 34.2 µM; with DU-145 prostate, more than 100 µM; in the test on M14 melanoma, more than 100 µM. The TGI with EKVX NSCLC is more than 100 µM; with SK-MEL-5 melanoma it was 37.6 µM; in the test on SK-MEL-2 melanoma, 21.8 µM; in the test on SR leukemia, more than 100 µM; in the test on COLO 205 colon it was 24.3 µM; in the test with MOLT-4 leukemia, more than 100 µM. Besides, the TGI with ACHN renal is more than 100 µM.
Consider `CC(=O)OC1[C@@H](OC(C)=O)CN(OCc2ccccc2)C[C@H]1OC(C)=O` (stereo not given in full), for which the TGI with SF-539 CNS, with NCI-H226 lung, in the test with A498 renal, with OVCAR-4 ovarian, in the test with PC-3 prostate and with SW-620 colon was more than 100 µM in each case. The TGI in the test with UO-31 renal, in the test on MDA-MB-435, in the test with HCC-2998 colon, in the test on SNB-75 CNS, with DU-145 prostate and in the test on M14 melanoma was more than 100 µM throughout. In addition, the TGI in the test on EKVX NSCLC, in the test on SK-MEL-5 melanoma, with SK-MEL-2 melanoma, in the test on SR leukemia, with COLO 205 colon and in the test on MOLT-4 leukemia was more than 100 µM in each case. The same compound yielded a TGI with ACHN renal of more than 100 µM.
Consider `COCn1c(C)c(C)c2c(=O)oc(C)nc21`, for which the TGI with SF-539 CNS, in the test on NCI-H226 lung, in the test with A498 renal, in the test on OVCAR-4 ovarian, with PC-3 prostate and with SW-620 colon was more than 100 µM each time. The TGI in the test with UO-31 renal, in the test on MDA-MB-435, with HCC-2998 colon, in the test with SNB-75 CNS, in the test with DU-145 prostate and in the test on M14 melanoma was more than 100 µM each time. Further, the TGI with EKVX NSCLC, in the test with SK-MEL-5 melanoma, in the test with SK-MEL-2 melanoma, with SR leukemia, in the test with COLO 205 colon and with MOLT-4 leukemia was more than 100 µM throughout. Moreover, the TGI in the test on ACHN renal is more than 100 µM.
